Test results from patent US8680251B2, “Triterpenoid 2-deoxy glycosides, method of preparation thereof and use thereof as medicaments” (Univerzita Palackeho V Olomouci, priority 2008, dated 2014).

Key:
[1] = tested on: CEM (T-lymfoblastic leukemia); assay: Cytotoxic MTT test, CEM; assay type: cell-based; conditions: CEM cells, 72 h
Source text: (§1) Cytotoxic MTT test on cell lines derived from normal tissues and tumors were used for assessing the antitumor activity of the novel compounds in vitro. We used namely the lines K562 (human myeloid leukemia), K562-tax (human myeloid leukemia resistant to taxol and overexpressing the protein of multiple drug resistance PgP), CEM (T-lymfoblastic leukemia), CEM-DNR-bulk (T-lymfoblastic leukemia resistant to doxorubicin, lacking the expression of the target gene for topoisomerase II alfa inhibitors and expressing the multiple drug resistance protein MRP1), line A549 (human lung adenocarcinoma), line HT-29 (human colorectal adenocarcinoma), MCF-7 (human breast adenocarcinoma, p53 wild type), HCT116 p53wt (human colorectal adenocarcinoma, wild-type p53), HCT116 p53mut (human colorectal adenocarcinoma with mutated p53), U87Mg (human glioblastoma). Expression characteristics, sensitivity profiles to classical antitumor drugs and methodology of the cytotoxic MTT test were repeatedly published (Nosková V. et al., Neoplasma 2002, S arek J. et al., J. Med. Chem., 2003, Dzubák P. et al., Bioorg. Med. Chem., 2006).
(§2) The MTT test was carried out according to the following procedure. The tested compound in six dilutions (final concentration of 250 μmol/l, another five concentrations were obtained by 4-fold, 16-fold, 64-fold, 256-fold and 1024-fold dilution of this solution) was added to tissue culture of cells in the cultivation plate wells. Each concentration was tested in doublet. The cell suspension was incubated in the environment containing the tested compound for 72 h at 37° C., in 5% CO2 atmosphere and 100% humidity. MTT—[3-(4,5-dimethylthiazol-2-yl)-2,5-difenyl-2H-tetrazolium bromid]—was then added to each well and the incubation was continued for additional 4 h. The incubation was finished by an addition of sodium dodecansulphonate and the percentage of surviving cells was determined spectrophotometrically at 540 nm. The concentration lethal for 50% of the tumor cells—IC50—was calculated from dose-response curves.

[2] = tested on: MCF-7 (human breast adenocarcinoma, p53 wild type); assay: Cytotoxic MTT test, MCF-7; assay type: cell-based; conditions: 72 h
Source text: as §1, §2

[3] = tested on: CEM-DNR-bulk (T-lymfoblastic leukemia resistant to doxorubicin); assay: Cytotoxic MTT test, CEM-DNR-bulk; assay type: cell-based; conditions: CEM-DNR-BULK cells, 72 h
Source text: as §1, §2

[4] = tested on: K562 (human myeloid leukemia); assay: Cytotoxic MTT test, K562; assay type: cell-based; conditions: K562 cells, 72 h
Source text: as §1, §2

[5] = tested on: K562-tax (human myeloid leukemia resistant to taxol); assay: Cytotoxic MTT test, K562-tax; assay type: cell-based; conditions: K562-tax cells, 72 h
Source text: as §1, §2

[6] = tested on: HT-29 (human colorectal adenocarcinoma); assay: Cytotoxic MTT test, HT-29; assay type: cell-based; conditions: HT-29 cells, 72 h
Source text: as §1, §2

[7] = tested on: PC-3; assay: Cytotoxic MTT test, PC-3; assay type: cell-based; conditions: PC-3 cells, 72 h
[8] = tested on: U87Mg (human glioblastoma); assay: Cytotoxic MTT test, U87Mg; assay type: cell-based; conditions: U87Mg cells, 72 h
Source text: as §1, §2

[9] = tested on: HCT116 p53mut (human colorectal adenocarcinoma with mutated p53); assay: Cytotoxic MTT test, HCT116 p53mut; assay type: cell-based; conditions: 72 h
Source text: as §1, §2

[10] = tested on: HCT116 p53wt (human colorectal adenocarcinoma, wild-type p53); assay: Cytotoxic MTT test, HCT116 p53wt; assay type: cell-based; conditions: 72 h
Source text: as §1, §2

[11] = Storage stability of cyclodextrin solution; assay type: physicochemical; conditions: solution of 3a with 2-hydroxypropyl-γ-cyclodextrin in water/propylene glycol, freezer at −20 C, several months
Procedure: 2-hydroxypropyl-γ-cyclodextrin (7.00 g) was dissolved under vigorous stirring and at the temperature of 50° C. in a mixture of water (14.0 ml) and propylene glycol (6.0 ml). 2-deoxy galactoside 3a (1.00 g) is then added at once into the resulting colourless viscous solution and the mixture is vigorously stirred at the temperature of 50° C. Usually, 20 min is needed for complete dissolution. After complete dissolution of the triterpenoid, the resulting bright solution is cooled down to room temperature, filtered by an injection syringe filter (hydrophilic, pore size 0.22 μm) in order to be sterile and is placed to a refrigerator. […] The thus prepared formulation can be used for oral or, after optionally adding a saline solution, for intravenous administration.

| Compound | IC50 [1] [µM] | IC50 ([2]; MCF-7 cells) [µM] | IC50 [3] [µM] | IC50 [4] [µM] | IC50 [5] [µM] | IC50 [6] [µM] | IC50 [7] [µM] | IC50 [8] [µM] | IC50 ([9]; HCT116 p53 mut cells) [µM] | IC50 ([10]; HCT116 p53wt cells) [µM] | IC50 ([1]; Homo sapiens, CCRF-CEM) [µM] | IC50 ([2]; Homo sapiens, MCF7, MCF-7 cells) [µM] | IC50 ([4]; Homo sapiens) [µM] | IC50 ([5]; Homo sapiens) [µM] | IC50 ([6]; Homo sapiens) [µM] | IC50 ([7]; Homo sapiens) [µM] | IC50 ([8]; Homo sapiens, U-87 MG) [µM] | IC50 ([9]; Homo sapiens, HCT-116, HCT116 p53 mut cells) [µM] | IC50 ([10]; Homo sapiens, HCT-116, HCT116 p53wt cells) [µM] | decomposition on storage [11] |
| --- | --- | --- | --- | --- | --- | --- | --- | --- | --- | --- | --- | --- | --- | --- | --- | --- | --- | --- | --- | --- |
| CC(=O)OC[C@H]1O[C@H](OC[C@@]23CC[C@]4(C)C(CCC5[C@@]6(C)CC[C@H](OC(C)=O)C(C)(C)C6CC[C@]54C)C2=C(C(C)C)C(=O)C3)C[C@@H](OC(C)=O)[C@H]1OC(C)=O (stereo partly shown) [Compound 1a] | 1.8 | 11.4 | 12.5 | 2.4 | 9.8 | 11.4 | 23.5 | ≥ 250 | 8.8 | 7.9 |  |  |  |  |  |  |  |  |  |  |
| CC(=O)OC[C@H]1O[C@H](OC[C@@]23CC[C@]4(C)C(CCC5[C@@]6(C)CC[C@H](OC(C)=O)C(C)(C)C6CC[C@]54C)C2=C(C(C)C)C(=O)C3)C[C@@H](OC(C)=O)[C@@H]1OC(C)=O (stereo partly shown) [Compound 1b] | 9.2 | 17 | 41.5 | 6.4 | 9.5 | 10.1 | 39.3 | ≥ 250 | 12.4 | 8.6 |  |  |  |  |  |  |  |  |  |  |
| CC(=O)OC[C@H]1O[C@H](OC[C@@]23CC[C@]4(C)C(CCC5[C@@]6(C)CC[C@H](OC(C)=O)C(C)(C)C6CC[C@]54C)C2=C(C(C)C)C(=O)C3)C[C@@H](Br)[C@@H]1OC(C)=O (stereo partly shown) [Compound 1c] | 3.8 | 35.2 | 27 | 9 | 22.6 | 40.9 | ≥ 250 | ≥ 250 | 14 | 19.1 |  |  |  |  |  |  |  |  |  |  |
| COC(=O)[C@@]12CC[C@]3(C)C(CCC4[C@@]5(C)CC[C@H](OC6CC(OC(C)=O)C(OC(C)=O)C(COC(C)=O)O6)C(C)(C)C5CC[C@]43C)C1=C(C(C)C)C(=O)C2 (stereo partly shown) [Compound 2b] |  |  | 25 |  |  |  |  |  |  |  | 0.6 | 2.5 | 0.6 | 3 | 2.4 | 22.1 | ≥ 250 | 3.5 | 1.6 |  |
| COC(=O)[C@@]12CC[C@]3(C)C(CCC4[C@@]5(C)CC[C@H](O[C@@H]6C[C@@H](O)[C@@H](O)[C@@H](CO)O6)C(C)(C)C5CC[C@]43C)C1=C(C(C)C)C(=O)C2 (stereo partly shown) [Compound 3a] | 4.7 | 13.6 | 34.4 | 11.5 | 15.9 | 17.8 | 11.2 | 53 | 17.5 | 10.3 |  |  |  |  |  |  |  |  |  | without any detectable decomposition |
| COC(=O)[C@@]12CC[C@]3(C)C(CCC4[C@@]5(C)CC[C@H](O[C@@H]6C[C@@H](O)[C@H](O)[C@@H](CO)O6)C(C)(C)C5CC[C@]43C)C1=C(C(C)C)C(=O)C2 (stereo partly shown) [Compound 3b] | 6.2 | 18.4 | 25 | 11.6 | 12.9 | 18.9 | 36.4 | 42.7 | 21 | 11.5 |  |  |  |  |  |  |  |  |  |  |
